According to ChEMBL document CHEMBL4814061, “Novel Azaquinolones as PARP1 Inhibitors for Treating Cancer” (ACS Med Chem Lett, 2021):

Biological target: Poly [ADP-ribose] polymerase 1 (Homo sapiens, UniProt P09874)
Assay: Inhibition of recombinant full length 6His-tagged PARP1 (unknown origin) incubated for 4 hrs by fluorescence anisotropy assay

Chain of Poly [ADP-ribose] polymerase 1 (P09874 whole entry): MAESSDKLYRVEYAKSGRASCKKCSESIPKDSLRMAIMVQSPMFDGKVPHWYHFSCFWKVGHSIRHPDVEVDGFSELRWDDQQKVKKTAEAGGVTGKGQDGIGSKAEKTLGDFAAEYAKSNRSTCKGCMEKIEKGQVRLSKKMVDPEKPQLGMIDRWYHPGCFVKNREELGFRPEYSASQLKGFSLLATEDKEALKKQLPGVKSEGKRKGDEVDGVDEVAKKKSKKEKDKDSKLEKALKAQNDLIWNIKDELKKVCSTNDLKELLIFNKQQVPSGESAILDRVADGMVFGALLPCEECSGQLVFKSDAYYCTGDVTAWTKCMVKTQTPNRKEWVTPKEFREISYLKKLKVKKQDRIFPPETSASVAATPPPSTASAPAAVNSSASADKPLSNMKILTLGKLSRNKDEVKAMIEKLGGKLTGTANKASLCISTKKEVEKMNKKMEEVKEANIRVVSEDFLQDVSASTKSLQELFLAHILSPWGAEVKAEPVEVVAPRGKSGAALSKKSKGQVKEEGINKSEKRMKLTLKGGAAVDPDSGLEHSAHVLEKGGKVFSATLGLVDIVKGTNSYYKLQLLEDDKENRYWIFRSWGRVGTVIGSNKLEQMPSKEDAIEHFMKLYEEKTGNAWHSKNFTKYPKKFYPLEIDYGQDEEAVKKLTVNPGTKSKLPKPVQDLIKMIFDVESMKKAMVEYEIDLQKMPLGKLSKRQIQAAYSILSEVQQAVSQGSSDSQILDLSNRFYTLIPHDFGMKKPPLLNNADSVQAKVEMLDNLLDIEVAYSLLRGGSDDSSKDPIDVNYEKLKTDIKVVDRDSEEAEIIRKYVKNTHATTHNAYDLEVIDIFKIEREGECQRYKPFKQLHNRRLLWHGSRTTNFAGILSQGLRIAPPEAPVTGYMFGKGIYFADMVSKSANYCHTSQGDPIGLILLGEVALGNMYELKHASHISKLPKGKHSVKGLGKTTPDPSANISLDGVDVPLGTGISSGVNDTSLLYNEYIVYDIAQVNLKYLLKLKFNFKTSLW

SMILES | IC50 [nM]
CCc1cc2cnc(CN3CCN(c4ccc(C(=O)NC)nc4Cl)CC3)cc2[nH]c1=O | 3
CNC(=O)c1ccc(N2CCN(Cc3cc4[nH]c(=O)c(CC(F)F)cc4cn3)CC2)c(F)n1 | 3
CCc1cc2cnc(CN3CCN(c4ccc(C(N)=O)nc4)CC3)cc2[nH]c1=O | 2

Continued by falling IC50, values first:

IC50 [nM] | SMILES
2 | CNC(=O)c1ccc(N2CCN(Cc3cc4[nH]c(=O)c(CCF)cc4cn3)CC2)cn1
2 | CCc1cc2cnc(CN3CCN(c4ccc(C(=O)NC)nc4F)CC3)cc2[nH]c1=O
